Among the data in patent publication US20170015654A1, “PYRIDAZINE COMPOUND” (TAKEDA PHARMACEUTICAL COMPANY LIMITED, priority 2014, published 2017) are inhibition values, retold here.

In the assay the target is T1, SCD (Homo sapiens, UniProt O00767).
T1 construct: HCT116 (ATCC (American Type Culture Collection)) was inoculated at 1×10^5 cells/well to a 96-well plate; host or cells: HCT116
T1 sequence (O00767 1-359): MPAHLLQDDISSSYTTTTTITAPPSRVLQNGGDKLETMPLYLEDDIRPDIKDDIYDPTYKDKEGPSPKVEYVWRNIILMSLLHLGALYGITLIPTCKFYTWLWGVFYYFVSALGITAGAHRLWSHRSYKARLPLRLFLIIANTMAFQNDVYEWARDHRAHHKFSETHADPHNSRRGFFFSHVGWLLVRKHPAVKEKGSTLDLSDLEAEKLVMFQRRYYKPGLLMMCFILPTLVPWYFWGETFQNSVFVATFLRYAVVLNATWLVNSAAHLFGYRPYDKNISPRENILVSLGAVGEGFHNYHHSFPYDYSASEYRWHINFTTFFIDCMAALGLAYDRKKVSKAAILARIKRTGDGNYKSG
Nature of the assay: Measurement of SCD inhibitory activity using human large intestine cancer cell line (HCT116 cell). Conditions: HCT-116; 1 μM compound; HCT116 cells; [14C]stearic acid, 3 hours; read-out: Rate of inhibition of SCD activity at compound concentration of 1 μM. It counts as cell-based. As for the experimental part: Measurement of SCD Inhibitory Activity Using Human Large Intestine Cancer Cell Line (HCT116 Cell)
HCT116 (ATCC (American Type Culture Collection)) was inoculated at 1×10^5 cells/well to a 96-well plate and cultured overnight in DMEM (Dulbecco's modified Eagle medium) containing 10% FBS (fetal bovine serum) (AusGeneX PTY LTD.). After the culture, each well was washed twice with phosphate-buffered saline (PBS) (200 μL). Then, a reaction medium (DMEM, penicillin/streptomycin, 0.3% BSA) containing 1.5 μM of the test compound was added thereto at 40 μL/well, and the plate was left standing for 15 minutes in a CO2 incubator (37° C.). A reaction medium containing 0.1 μCi of [^14C]stearic acid was added at 20 μL/well to the plate thus left standing, and the plate was left standing for 3 hours in a CO2 incubator (37° C.). Each well of the plate thus left standing was washed twice with 200 μL of PBS. Then, 2.5 N NaOH was added thereto at 20 μL/well, and the plate was provided with a plate seal and then incubated overnight in a heat sterilizer set to 55° C. A formic acid:methanol:chloroform (1:16:4) solution was added at 200 μL/well to the plate thus left standing. Further, the mixture in each well was separated into two layer by the addition of 200 μL of pure water. After the separation, a 10 μL aliquot was separated from the lower layer, spotted on a reverse-phase TLC plate (RP-18, 1154230001, Merck KGaA), and developed with an acetonitrile:pure water:acetic acid (95:4.5:0.5) solution. After drying, the TLC plate was transferred to Imaging Plate (Fuji Photo Film) for 5 hours or longer. Detection was carried out using FLA7000 (GE Healthcare Japan Corp.), and the obtained spot images were digitalized using ImageQuant TL (GE Healthcare Japan Corp.) to determine the rate of inhibition of SCD activity (%).

Consider `OCc1noc(-c2ccc(N3CCC(c4ccc(C(F)(F)F)cc4)(C(F)(F)F)CC3)nn2)n1` [Example 82, (5-(6-(4-(Trifluoromethyl)-4-(4-(trifluoromethyl)phenyl)piperidin-1-yl)pyridazin-3-yl)-1,2,4-oxadiazol-3-yl)methanol], for which the inhibition at 1 µM is 99%.

`N#CC1(c2ccc(S(F)(F)(F)(F)F)cc2)CCN(c2ccc(-c3nnc(CO)o3)nn2)CC1` [Example 58, 1-(6-(5-(Hydroxymethyl)-1,3,4-oxadiazol-2-yl)pyridazin-3-yl)-4-(4-(pentafluorosulfanyl)phenyl)piperidine-4-carbonitrile]: the inhibition at 1 µM is 97%.

Regarding `COC1(c2ccc(S(F)(F)(F)(F)F)cc2)CCN(c2ccc(-c3nnc(CO)s3)nn2)CC1` [Example 111, (5-(6-(4-Methoxy-4-(4-(pentafluorosulfanyl)phenyl)piperidin-1-yl)pyridazin-3-yl)-1,3,4-thiadiazol-2-yl)methanol], the inhibition at 1 µM worked out at 101%.

For the molecule `N#CC1(c2ccc(S(F)(F)(F)(F)F)cc2)CCN(c2ccc(-c3nc(CO)ns3)nn2)CC1` [Example 108, 1-(6-(3-(Hydroxymethyl)-1,2,4-thiadiazol-5-yl)pyridazin-3-yl)-4-(4-(pentafluorosulfanyl)phenyl)piperidine-4-carbonitrile], the inhibition at 1 µM came out at 100%.

Consider `N#CC1(c2ccc(S(F)(F)(F)(F)F)cc2)CCN(c2ccc(-c3nnc(CO)s3)nn2)CC1` [Example 109, 1-(6-(5-(Hydroxymethyl)-1,3,4-thiadiazol-2-yl)pyridazin-3-yl)-4-(4-(pentafluorosulfanyl)phenyl)piperidine-4-carbonitrile], for which the inhibition at 1 µM was 96%.

On to `OCc1nnc(-c2ccc(N3CCC(c4ccc(C(F)(F)F)cc4)(C(F)(F)F)CC3)nn2)s1` [Example 113, (5-(6-(4-(Trifluoromethyl)-4-(4-(trifluoromethyl)phenyl)piperidin-1-yl)pyridazin-3-yl)-1,3,4-thiadiazol-2-yl)methanol], for which the inhibition at 1 µM was found to be 99%.

In the case of `OCc1nnc(-c2ccc(N3CCC(c4ccc(C(F)(F)F)cc4)(C(F)(F)F)CC3)nn2)o1` [Example 84, (5-(6-(4-(Trifluoromethyl)-4-(4-(trifluoromethyl)phenyl)piperidin-1-yl)pyridazin-3-yl)-1,3,4-oxadiazol-2-yl)methanol], the inhibition at 1 µM came to 99%.

`COC1(c2ccc(S(F)(F)(F)(F)F)cc2)CCN(c2ccc(-c3nnc(CO)o3)nn2)CC1` [Example 93, (5-(6-(4-Methoxy-4-(4-(pentafluorosulfanyl)phenyl)piperidin-1-yl)pyridazin-3-yl)-1,3,4-oxadiazol-2-yl)methanol]: the inhibition at 1 µM worked out at 99%.

For `OCc1nsc(-c2ccc(N3CCC(c4ccc(C(F)(F)F)cc4)(C(F)(F)F)CC3)nn2)n1` [Example 112, (5-(6-(4-(Trifluoromethyl)-4-(4-(trifluoromethyl)phenyl)piperidin-1-yl)pyridazin-3-yl)-1,2,4-thiadiazol-3-yl)methanol], the inhibition at 1 µM turned out to be 97%.

In the case of `COC1(c2ccc(S(F)(F)(F)(F)F)cc2)CCN(c2ccc(-c3nc(CO)ns3)nn2)CC1` [Example 110, (5-(6-(4-Methoxy-4-(4-(pentafluorosulfanyl)phenyl)piperidin-1-yl)pyridazin-3-yl)-1,2,4-thiadiazol-3-yl)methanol], the inhibition at 1 µM stood at 98%.
